Experimental data reported in patent US7384950B2, “Thienopyrimidinediones and their use in the modulation of autoimmune disease” (AstraZeneca AB, priority 2001, dated 2008).

System: PMA/ionomycin-stimulated peripheral blood mononuclear cell (PBMC)
Assay: Inhibition of PMA/ionomycin-stimulated peripheral blood mononuclear cell proliferation
Assay type: cell-based
Conditions: human PBMC from a single donor, 10% human serum, PMA 0.5 ng/ml and ionomycin 500 ng/ml, 72 hours, 3H-thymidine incorporation; read-out: IA50 (the source's name)
Procedure: The ability of compounds which can inhibit PMA/ionomycin-stimulated peripheral blood mononuclear cell proliferation can be assessed, for example using the procedure set out below:
Inhibition of PMA/ionomycin-stimulated Peripheral Blood Mononuclear Cell Proliferation
The assay for PMA/ionomycin-stimulated PBMC proliferation was performed in 96-well flat bottomed microtitre plates. Compounds were prepared as 10 mM stock solutions in dimethyl sulfoxide. A 50-fold dilution of this was prepared in RPMI and serial dilutions were prepared from this solution. 10 μl of the 50-fold diluted stock, or dilutions of it, were added to the well to give concentrations in the assay starting at 9.5 μM and going down. Into each well was placed 1×10^5 PBMC, prepared from human peripheral blood from a single donor, in RPMI1640 medium supplemented with 10% human serum, 2 mM glutamine and penicillin/streptomycin. Phorbol myristate acetate (PMA) (0.5 ng/ml final concentration) and ionomycin (500 ng/ml final concentration) were added to these cells in supplemented RPMI1640 medium (as above) so that the final volume of the assay was 0.2 ml. […] The level of radioactivity incorporated by the cells was then determined and this is a measure of proliferation.

CC(C)n1c(=O)n(C)c(=O)c2c(C(=O)N3C[C@H](O)CO3)c(Cc3ccnc4ccccc34)sc21 [Example 20, (S) 5-{4-Hydroxyisoxazolidin-2-ylcarbonyl}-3-methyl-1-(isopropyl)-6-(4-quinolinylmethyl)thieno[2,3-d]pyrimidine-2,4(1H,3H)-dione]
IC50: 5 nM
